Laboratory results reported in patent US9404140B1, “Patterned cardiomyocyte culture on microelectrode array” (The University of Central Florida Research Foundation, Inc., priority 2009, dated 2016).
“Also recorded” adds a separate entry of the source.

Test system: patterned neonatal rat cardiomyocytes
Experiment: Multielectrode extracellular recordings from patterned spontaneously beating cardiomyocytes on MEAs (drug effect)
Assay type: cell-based
Description: MEAs containing 60, 10 μm diameter electrodes (Multichannel Systems, Germany) were cleaned by soaking the arrays in a detergent solution for 2 hours followed by sonication for 10 minutes. The arrays were then oxygen plasma cleaned for 20 minutes. Surface modification was completed by incubation of the MEAs in a 3 mM PEG silane, 2-[Methoxypoly(ethyleneoxy)propyl]trimethoxysilane (MW=460-590, Gelest), solution in toluene, with 37% concentrated HCL added to achieve a final value of 0.08% (0.8 ml HCL/L), for 45 minutes at room temperature. The arrays were then rinsed once in toluene, twice in ethanol, twice in water and sonicated in water for 2 minutes to remove the non-covalently linked material. The arrays were air dried with nitrogen and stored in a dessicator overnight.
The MEAs were patterned by laser ablation photolithography using a deep UV (193 nm) excimer laser (Lambda Physik) at a pulse power of 230 mW and a frequency of 10 Hz for 45 seconds through a quartz photomask (Bandwidth foundry, Eveleigh, Australia). The arrays were sterilized using 70% isopropanol and then incubated with 5 μg/ml of fibronectin in a Phosphate buffered solution (Invitrogen) for 20 minutes at room temperature. The solution was removed and the surface was first rinsed with PBS, followed by the plating medium, and then dried before the cells were plated.
The neonatal rat cardiomyocyte culture was prepared using the cardiac isolation kit from Worthington[40]. All animal work was approved by the UCF IACUC and followed NIH guidelines. Briefly, two day-old rat pups were euthanized in a precharged CO2 chamber. Hearts were dissected and minced in ice cold Hanks balanced salt solution (HBSS). Cardiac myocytes were dissociated by incubation of the hearts in trypsin (100 μg/ml in HBSS) for 16 hours at 2-8° C. The hearts in the trypsin solution were briefly warmed with a trypsin inhibitor before adding collegenase (300 units/ml in L-15 medium) for 45 minutes in a water bath at 37° C. followed by mechanical trituration. The cell solution was filtered to remove any remaining tissue and centrifuged at 50 g for 5 minutes at 22° C. The cells were resuspended in high glucose Dulbecco's modified eagle medium (DMEM, Gibco/Invitrogen) supplemented with 10 ml Fetal Bovine Serum (Gibco/Invitrogen) and 1 ml penicillin streptomycin (Gibco/Invitrogen), preplated in Petri dishes and incubated at 37° C. and in 5% CO2 for 45 minutes. This was necessary to eliminate the fibroblasts. The supernatant from the Petri dishes was centrifuged at 50 g for 5 min at 22° C. The cells were then resuspended in the plating medium. The serum-free plating medium consisted of: 100 ml Ultraculture medium (Bio Whittaker Cambrex) supplemented with 10 ml B27, 1 ml L-glutamine (Gibco/Invitrogen), 1 ml Penicillin Streptomycin, 0.375 g dextrose (Fisher Scientific) in 800 μl water, 1 ml non-essential amino acids and 1 ml of Hepes buffer (Gibco/Invitrogen)[41]. Additional growth factors were also added to improve cell survival in the serum-free conditions. They included 0.1 μg/ml of L-thyroxine, 10 ng/ml of Epidermal growth factor (Sigma-aldrich) and 0.5 μg/ml of Hydrocortisone (BD biosciences). Cells were plated at a density of 1000 cells/mm^2 on the MEAs. The medium was changed 24 hours after plating. Subsequent changing of the medium was performed every third day.
The cardiac myocytes were cultured on patterned metal MEAs (Planar 10 μm electrodes, 200 μm separation, Multichannel-systems). A 60 channel amplifier (MEA1040, Multichannel-systems) was used to record electrical activity from the spontaneously beating cardiac cells. The same electrodes were also used for stimulation utilizing a stimulus generator (STG 1002, Multichannel systems). The cells were stimulated utilizing 500 mV, 1 ms wide bipolar pulses at 2 Hz. The recording medium was the same as the plating medium with the pH adjusted to 7.3 using HEPES buffer. […]

[1] = 2 μM Sparfloxacin in recording medium

Row | Field potential (FP) length [1] | Time to significant change in the spontaneous beating frequency [1] | SMILES | Conduction velocity (CV) (50 μM 1-Heptanol in recording medium, spontaneously beating cells, n=4 MEAs, before treatment 0.197±0.014 m/s) | Time for propagation of the excitation wave versus value before treatment (50 μM 1-Heptanol, FPs recorded at 15 minute intervals) | Effect on CV in the cardiac myocyte monolayers (in words) (1-Heptanol, 50 μM) | Synchronicity of the beating cells (1-Heptanol, 50 μM) | Conduction velocity (CV), propagation of excitation after the drug (1-Heptanol, between electrodes 84 and 52 of the pattern, before drug 0.197 m/sec, FIG. 5) | Beating pattern, synchrony and conduction (in words) [1]
1 |  |  | CCCCCCCO [1-Heptanol] | 0.0066±0.0004 m/s | significantly increased | drastically decreased the CV in the cardiac myocyte monolayers without completely blocking the conduction | maintaining the synchronicity of the beating cells | 0.0066 m/sec | 
2 | increased FP length | ≤ 25 min | C[C@@H]1CN(c2c(F)c(N)c3c(=O)c(C(=O)O)cn(C4CC4)c3c2F)C[C@H](C)N1 [Sparfloxacin] |  |  |  |  |  | burst like activity with higher intra-burst frequencies and no synchrony between electrodes; also recorded: non-synchronous contractions similar to fibrillation and burst-like beating activity; also recorded: caused fibrillations which initiated a complete conduction block
